Experiments:
[1] = molecular target: T1, α-amylase from porcine pancreas (Sus scrofa, UniProt P00690); experiment: α-Amylase inhibition assay; assay type: biochemical; details: mean ± SEM; starch substrate, DNSA
T1 construct: α-amylase from porcine pancreas (Sigma A3176-500KU, 089K1661); purchased Sigma A3176-500KU (lot 089K1661); host or cells: porcine pancreas
T1 sequence (P00690 16-511): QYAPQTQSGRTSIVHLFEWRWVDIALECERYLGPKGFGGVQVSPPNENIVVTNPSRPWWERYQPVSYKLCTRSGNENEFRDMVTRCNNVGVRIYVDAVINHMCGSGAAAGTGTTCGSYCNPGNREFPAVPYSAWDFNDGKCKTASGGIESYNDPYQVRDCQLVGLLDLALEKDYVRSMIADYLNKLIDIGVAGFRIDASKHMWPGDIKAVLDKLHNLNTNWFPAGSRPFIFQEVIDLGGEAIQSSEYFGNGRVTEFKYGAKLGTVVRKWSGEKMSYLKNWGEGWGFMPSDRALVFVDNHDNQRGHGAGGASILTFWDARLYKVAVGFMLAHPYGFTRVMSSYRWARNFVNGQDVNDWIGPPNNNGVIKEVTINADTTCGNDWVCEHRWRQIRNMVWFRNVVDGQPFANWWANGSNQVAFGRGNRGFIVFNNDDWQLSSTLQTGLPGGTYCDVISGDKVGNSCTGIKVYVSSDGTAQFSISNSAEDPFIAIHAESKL
Description: The α-amylase inhibitory activity of sinigrin was determined according to a previously reported method with slight modifications. Briefly, 40 μL of a solution of the test inhibitor and 40 μL of enzyme solution (α-amylase from porcine pancreas (Sigma A3176-500KU, 089K1661) in a buffer of 0.02 M sodium phosphate at pH 6.9 with 0.006 M sodium chloride) were added to a 1.5-mL Eppendorf tube and incubated for 10 min at room temperature. […] Then, 100 μL of DNSA colouring reagent (10 g of sodium potassium tartrate, 1 g of 3,5-dinitrosalicylic acid and 20 mL of 2 N NaOH to a final volume of 100 mL in distilled water) was added, and the mixture was incubated in a boiling water bath for 5 min. After cooling to room temperature, the reaction mixture was diluted to 500 μL using distilled water, and the absorbance was recorded at 540 nm. For non-enzymatic reactions, the assays were performed with a blank containing all of the components except the enzyme. The values of the % inhibition and IC50 were calculated from the results of the assays using the same procedure as that described for the α-glucosidase inhibition assays.

glucoamylase = test system: glucoamylase; parameters: method as in PMID 28482265; details: cited from earlier work
maltase = test system: maltase; parameters: method as in PMID 28482265; details: cited from earlier work
isomaltase = test system: isomaltase; parameters: method as in PMID 28482265; details: cited from earlier work
α-glucosidase = α-glucosidase (Saccharomyces cerevisiae, UniProt P53341); experiment: Kinetic study of α-glucosidase (Lineweaver-Burk); assay type: biochemical; details: Lineweaver-Burk plot
α-glucosidase, sequence (P53341 whole entry): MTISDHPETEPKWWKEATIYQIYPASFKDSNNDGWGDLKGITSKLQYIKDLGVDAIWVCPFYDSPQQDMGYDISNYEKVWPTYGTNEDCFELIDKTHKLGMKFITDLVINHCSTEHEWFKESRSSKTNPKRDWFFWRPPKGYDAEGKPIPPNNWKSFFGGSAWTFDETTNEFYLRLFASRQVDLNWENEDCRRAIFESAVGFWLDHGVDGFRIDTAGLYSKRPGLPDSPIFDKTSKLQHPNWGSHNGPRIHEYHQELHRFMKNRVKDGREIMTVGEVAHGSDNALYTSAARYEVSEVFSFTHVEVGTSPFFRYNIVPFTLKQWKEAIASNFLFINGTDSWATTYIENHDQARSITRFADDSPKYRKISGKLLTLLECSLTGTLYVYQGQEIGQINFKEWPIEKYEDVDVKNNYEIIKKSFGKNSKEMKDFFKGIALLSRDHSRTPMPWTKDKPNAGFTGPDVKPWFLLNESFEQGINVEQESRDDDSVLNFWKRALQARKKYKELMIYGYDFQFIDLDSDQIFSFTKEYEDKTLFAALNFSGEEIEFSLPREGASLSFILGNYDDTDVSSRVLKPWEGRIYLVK
Description: To understand the inhibition mechanism of the synthesized compounds on α-glucosidase, an inhibition kinetics study was performed. […] In our evaluation of the kinetics of the enzyme, the Lineweaver-Burk plot of 1/V versus 1/[S] in the presence of different inhibitor concentrations gave a series of straight lines. […] Km increases with increasing concentration, while Vmax remains essentially constant.
A series of experiments was performed to calculate the inhibition kinetics of 5g. The tested concentrations of 5g were 0.00, 0.15 and 0.3. The concentration of substrate, p-nitrophenyl-α-D-glucopyranoside, was between 0.3125 and 10 mM in all the kinetics experiments. The pre-incubation and measurement times were the same as those discussed in the α-glucosidase inhibition assay procedure. The maximal initial velocity was determined from the initial linear portion of absorbance in the first five minutes following the addition of the enzyme at 30 s intervals. The type of inhibition of the enzyme was assessed by preparing Lineweaver-Burk plots of the inverse of the velocities (1/V) versus the inverse of the substrate concentration 1/[S] mM^−1. The EI dissociation constant, Ki, was determined by the secondary plot of 1/V versus the inhibitor concentration.

[2] = DPPH free radical scavenging assay; details: 100 µg/mL
Description: Radical scavenging activity was determined by modifying a previously reported 2,2-diphenyl-1-picrylhydrazyl (DPPH) assay. The assay solution consisted of 100 µL of DPPH solution (150 µM), 20 µL of the test compounds solution at increasing concentrations, and enough DMSO to bring the volume of solution in each well to 200 µL. The reaction mixture was then incubated for 30 min at room temperature. Ascorbic acid (vitamin C) was used as a reference inhibitor. The assay measurements were carried out using a micro plate reader (OPTIMax, Tunable) at 520 nm. The reaction rates were compared, and the percentages of inhibition caused by the presence of the test inhibitors were calculated. Each concentration was analysed in three independent experiments run in triplicate.

| Structure (SMILES) | IC50 [1] | melting point | inhibition of glucoamylase (glucoamylase) | inhibition of maltase (maltase) | inhibition of isomaltase (isomaltase) | type of inhibition (α-glucosidase) | Free radical scavenging activity (%) [2] |
| --- | --- | --- | --- | --- | --- | --- | --- |
| O=[N+]([O-])c1ccc(/N=N/c2ccc(O)c(/C=N/N=C/c3cc(/N=N/c4ccc([N+](=O)[O-])cc4[N+](=O)[O-])ccc3O)c2)c([N+](=O)[O-])c1 [Compound 5a, (E)-2,2’-((1E,1’E)-Hydrazine-1,2-diylidenebis(methanylylidene))bis(4-((E)-(2,4-dinitrophenyl)diazenyl)phenol)] | 8.54 ± 0.653 µM | 275 °C |  |  |  |  |  |
| C[C@H]1O[C@H](O[C@H]2[C@H](O)[C@@H](O)[C@@H](O[C@H]3[C@H](O)[C@@H](O)C(O)O[C@@H]3CO)O[C@@H]2CO)[C@H](O)[C@@H](O)[C@@H]1N[C@H]1C=C(CO)[C@@H](O)[C@H](O)[C@H]1O (some centres unmarked) [Acarbose, acarbose] |  |  | 90% | 60% | 10% |  |  |
| O=[N+]([O-])c1ccc(/N=N/c2ccc(O)c(/C=N/N=C/c3cc(/N=N/c4ccc([N+](=O)[O-])cc4)ccc3O)c2)cc1 [Compound 5g, (E)-2,2’-((1E,1’E)-Hydrazine-1,2-diylidenebis(methanylylidene))bis(4-((E)-(4-nitrophenyl)diazenyl)phenol)] | 0.438 ± 0.042 µM | 215 °C |  |  |  | competitive | did not show significant scavenging potencies |
| Oc1ccc(/N=N/c2cccc(Cl)c2Cl)cc1/C=N/N=C/c1cc(/N=N/c2cccc(Cl)c2Cl)ccc1O [Compound 5b, (E)-2,2’-((1E,1’E)-Hydrazine-1,2-diylidenebis(methanylylidene))bis(4-((E)-(2,3-dichlorophenyl)diazenyl)phenol)] | 28.4 ± 2.17 µM | 222 °C |  |  |  |  |  |

Continued, in another order:

| IC50 [1] | melting point | Structure (SMILES) | inhibition of glucoamylase (glucoamylase) | inhibition of maltase (maltase) | inhibition of isomaltase (isomaltase) | type of inhibition (α-glucosidase) | Free radical scavenging activity (%) [2] |
| --- | --- | --- | --- | --- | --- | --- | --- |
| 28.5 ± 2.08 µM | 225 °C | NS(=O)(=O)c1ccc(/N=N/c2ccc(O)c(/C=N/N=C/c3cc(/N=N/c4ccc(S(N)(=O)=O)cc4)ccc3O)c2)cc1 [Compound 5e, 4,4’-((1E,1’E)-(((1E,1’E)-Hydrazine-1,2-diylidenebis(methanylylidene))bis(4-hydroxy-3,1-phenylene))bis(diazene-2,1-diyl))dibenzenesulfonamide] |  |  |  |  |  |
| 0.59 ± 0.012 µM | 210 °C | Oc1ccc(/N=N/c2cccc(Cl)c2)cc1/C=N/N=C/c1cc(/N=N/c2cccc(Cl)c2)ccc1O [Compound 5h, (E)-2,2’-((1E,1’E)-Hydrazine-1,2-diylidenebis(methanylylidene))bis(4-((E)-(3-chlorophenyl)diazenyl)phenol)] |  |  |  |  |  |
| 9.55 ± 0.73 µM | 195 °C | Oc1ccc(/N=N/c2ccccc2Cl)cc1/C=N/N=C/c1cc(/N=N/c2ccccc2Cl)ccc1O [Compound 5c, (E)-2,2’-((1E,1’E)-Hydrazine-1,2-diylidenebis(methanylylidene))bis(4-((E)-(2-chlorophenyl)diazenyl)phenol)] |  |  |  |  |  |
| 9.72 ± 0.863 µM | 205 °C | Oc1ccc(/N=N/c2ccc(Cl)cc2)cc1/C=N/N=C/c1cc(/N=N/c2ccc(Cl)cc2)ccc1O [Compound 5d, (E)-2,2’-((1E,1’E)-Hydrazine-1,2-diylidenebis(methanylylidene))bis(4-((E)-(4-chlorophenyl)diazenyl)phenol)] |  |  |  |  | did not show significant scavenging potencies |
| 4.29 ± 0.328 µM | 240 °C | O=S(=O)([O-])c1ccc(/N=N/c2ccc(O)c(/C=N/N=C/c3cc(/N=N/c4ccc(S(=O)(=O)[O-])cc4)ccc3O)c2)cc1.[Na+].[Na+] [Compound 5f, Sodium 4,4’-((1E,1’E)-(((1E,1’E)-hydrazine-1,2-diylidenebis(methanylylidene))bis(4-hydroxy-3,1-phenylene))bis(diazene-2,1-diyl))dibenzenesulfonate] |  |  |  |  | did not show significant scavenging potencies |

From PMC6515238, “Novel C-2 Symmetric Molecules as α-Glucosidase and α-Amylase Inhibitors: Design, Synthesis, Kinetic Evaluation, Molecular Docking and Pharmacokinetics” (Molecules, 2019)
